# Experimental data: the supplement of paper PMC11061612
# Columns and labels:
# [1] = system: ALL-PO (B-Lymphoblastic Leukemia); test: Bliss excess, mean over the matrix (fraction); higher = more synergy
# How it was run: (§1)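 Bliss excess equals the observed combination effect minus the expected value EA + EB − EA·EB, where EA and EB are the effects of each agent alone. Combination Emax is the second-highest inhibition within the matrix. Inhibition was scaled from CellTiter-Glo 2.0 luminescence, with 0 set by vehicle wells and 1 by blank wells, after 72 hours of two-drug dosing of cells plated in 1536-well plates.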
# [2] = system: CAL-72 (Osteosarcoma); test: as above
# How it was run: as §1
# [3] = system: EW-11 (Ewing's Sarcoma); test: as above
# How it was run: as §1
# [4] = system: HH (T-Cell Non-Hodgkin's Lymphoma); test: as above
# How it was run: as §1
# [5] = system: LCLC-97TM1 (Non-Small Cell Lung Carcinoma); test: as above
# How it was run: as §1
# [6] = system: LOXIMVI (Melanoma); test: as above
# How it was run: as §1
# [7] = system: LS-123 (Colorectal Carcinoma); test: as above
# How it was run: as §1
# [8] = system: NCI-H209 (Small Cell Lung Carcinoma); test: as above
# How it was run: as §1
# [9] = system: NCI-H720 (Other Solid Carcinomas); test: as above
# How it was run: as §1
# [10] = system: OVCAR-5 (Ovarian Carcinoma); test: as above
# How it was run: as §1
# [11] = system: SW1573 (Lung Adenocarcinoma); test: as above
# How it was run: as §1
# [12] = system: NCI-H720 (Other Solid Carcinomas); test: combination Emax (second highest fraction inhibited in the dose matrix, 72 h); higher = more inhibition; extreme values may be limits of the assay
# How it was run: as §1
# [13] = system: CHP-134 (Neuroblastoma); test: Bliss excess, mean over the matrix (fraction); higher = more synergy
# How it was run: as §1
# [14] = system: CHP-134 (Neuroblastoma); test: combination Emax (second highest fraction inhibited in the dose matrix, 72 h); higher = more inhibition; extreme values may be limits of the assay
# How it was run: as §1
SMILES,Bliss excess [1],Bliss excess [2],Bliss excess [3],Bliss excess [4],Bliss excess [5],Bliss excess [6],Bliss excess [7],Bliss excess [8],Bliss excess [9],Bliss excess [10],Bliss excess [11],combination Emax [12],Bliss excess [13],combination Emax [14]
"CN(C)CCCOc1ccc(-c2ccc3ncc4c(c3c2)n(C2CCOCC2)c(=O)n4C)cn1 [AZD0156] + C=CCn1c(=O)c2cnc(Nc3ccc(N4CCN(C)CC4)cc3)nc2n1-c1cccc(C(C)(C)O)n1 [AZD1775] (first compound max 1 µM, partner max 1 µM)",0.0128,-0.0492,-0.0426,-0.0689,-0.0179,0.0604,-0.0229,-0.0624,0.0013,-0.0043,-0.0423,0.722,–,–
"CN(C)CCCOc1ccc(-c2ccc3ncc4c(c3c2)n(C2CCOCC2)c(=O)n4C)cn1 [AZD0156] + CCN(CCO)CCCOc1ccc2c(Nc3cc(CC(=O)Nc4cccc(F)c4)[nH]n3)ncnc2c1 [AZD2811] (first compound max 1 µM, 7x7, partner max 1 µM)",-0.024,-0.0213,-0.084,-0.0412,0.0765,-0.0125,-0.0409,0.0922,0.0368,-0.0281,-0.0205,0.742,–,–
"CN(C)CCCOc1ccc(-c2ccc3ncc4c(c3c2)n(C2CCOCC2)c(=O)n4C)cn1 [AZD0156] + C[C@@H]1COCCN1C2=NC(=NC(=C2)C3(CC3)[S@](=N)(=O)C)C4=C5C=CNC5=NC=C4 [AZD6738] (first compound max 1 µM, 7x7, partner max 10 µM)",0.0402,0.111,-0.112,0.0175,-0.0039,0.0721,-0.0313,0.0711,-0.0059,-0.001,-0.0315,0.716,–,–
"CN(C)CCCOc1ccc(-c2ccc3ncc4c(c3c2)n(C2CCOCC2)c(=O)n4C)cn1 [AZD0156] + O=C(c1cc(Cc2n[nH]c(=O)c3ccccc23)ccc1F)N1CCN(C(=O)C2CC2)CC1 [Olaparib] (first compound max 3 µM, partner max 3 µM)",0.0594,0.0475,0.0995,-0.0513,-0.0124,0.0317,-0.0346,0.163,0.0622,-0.0123,-0.0002,0.371,0.174,0.434
"C=CCn1c(=O)c2cnc(Nc3ccc(N4CCN(C)CC4)cc3)nc2n1-c1cccc(C(C)(C)O)n1 [AZD1775] + C1CN(CCC1(C(=O)N[C@@H](CCO)C2=CC=C(C=C2)Cl)N)C3=NC=NC4=C3C=CN4 [Capivasertib] (first compound max 3 µM, partner max 3 µM)",-0.0134,0.0259,0.0203,-0.144,-0.0545,0.0764,-0.0341,–,-0.0252,-0.0923,-0.0229,0.842,-0.0416,0.844
"C=CCn1c(=O)c2cnc(Nc3ccc(N4CCN(C)CC4)cc3)nc2n1-c1cccc(C(C)(C)O)n1 [AZD1775] + C[C@@H]1COCCN1C2=NC(=NC(=C2)C3(CC3)[S@](=N)(=O)C)C4=C5C=CNC5=NC=C4 [AZD6738] (first compound max 1 µM, partner max 10 µM)",0.0624,-0.0277,-0.0282,0.0379,-0.0323,-0.0609,-0.0519,0.0422,0.0344,0.0146,0.0334,0.838,–,–
"C=CCn1c(=O)c2cnc(Nc3ccc(N4CCN(C)CC4)cc3)nc2n1-c1cccc(C(C)(C)O)n1 [AZD1775] + O=C(c1cc(Cc2n[nH]c(=O)c3ccccc23)ccc1F)N1CCN(C(=O)C2CC2)CC1 [Olaparib] (first compound max 1 µM, partner max 10 µM)",0.0063,-0.0871,-0.121,-0.0449,-0.0833,-0.0897,-0.0694,-0.0579,-0.035,-0.041,-0.0268,0.671,–,–
"CCN(CCO)CCCOc1ccc2c(Nc3cc(CC(=O)Nc4cccc(F)c4)[nH]n3)ncnc2c1 [AZD2811] + C=CCn1c(=O)c2cnc(Nc3ccc(N4CCN(C)CC4)cc3)nc2n1-c1cccc(C(C)(C)O)n1 [AZD1775] (first compound max 1 µM, partner max 1 µM)",0.0382,-0.0866,0.0003,-0.0179,0.033,0.0351,-0.0373,0.089,0.0326,-0.0616,0.0297,0.679,–,–
"CCN(CCO)CCCOc1ccc2c(Nc3cc(CC(=O)Nc4cccc(F)c4)[nH]n3)ncnc2c1 [AZD2811] + C[C@@H]1COCCN1C2=NC(=NC(=C2)C3(CC3)[S@](=N)(=O)C)C4=C5C=CNC5=NC=C4 [AZD6738] (first compound max 1 µM, 7x7, partner max 10 µM)",-0.0288,-0.0863,-0.0229,-0.033,0.0116,-0.0763,-0.0258,0.0731,0.0033,-0.0429,-0.0394,0.8,–,–
"CCN(CCO)CCCOc1ccc2c(Nc3cc(CC(=O)Nc4cccc(F)c4)[nH]n3)ncnc2c1 [AZD2811] + O=C(c1cc(Cc2n[nH]c(=O)c3ccccc23)ccc1F)N1CCN(C(=O)C2CC2)CC1 [Olaparib] (first compound max 1 µM, 7x7, partner max 10 µM)",0.0133,0.0343,0.0191,-0.0353,0.0148,0.0073,0.0144,0.0418,-0.0312,-0.0048,0.0123,0.561,–,–
